{"source": "paper PMC12627862", "about": "“Therapeutic targeting of endothelial calcium signaling accelerates the resolution of lung injury” (Signal Transduction and Targeted Therapy, 2025)", "system": "Crl:CD (SD) rats", "test": "Non-GLP dose-escalation (MTD) study in rats", "format": "in vivo, rat", "set-up": "key to Clinical Signs / Body Weights / Clinical Chemistry / Hematology / Coagulation: NE = no effect; DA = decreased activity; LB = labored breathing; P = piloerection; HP = hunched posture", "conditions": "for ALT / APTT / AST / Albumin / Alkaline Phosphatase / Blood Urea Nitrogen / Calcium / Chloride / Cholesterol / Creatinine / Fibrinogen / Globulin / Glucose / Phosphorus / Potassium / Prothrombin Time / Sodium / Total Bilirubin / Total Protein: male rats, day 2, mean, N=3; for Body Weights / Clinical Chemistry / Clinical Signs / Coagulation / Hematology: rats, n=3", "note": "Starred links: 1 amine or outer side, 2 acyl side, 3 side chain; linkers in the order of their positions; H or OH if unused. Non-standard residues stand in square brackets, D forms with d. Residues, ends and D or L forms follow the SMILES beside them. ξ: configuration not given here. Oic = O=C(O)[C@@H]1C[C@@H]2CCCC[C@@H]2N1; GABOB(3R) = O=C(C[C@@H](O)CN[*:1])[*:2]; tBuAla = CC(C)(C)C[C@H](N)C(=O)O; ξVal(3-OH) = CC(C)(O)C(N)C(=O)O; 4Amb = NCc1ccc(C(=O)O)cc1"}
{"smiles": "CC(C)(C)C[C@@H]1NC(=O)C[C@@H](O)CNC(=O)[C@@H]2C[C@@H]3CCCC[C@@H]3N2C(=O)[C@H](CC(C)(C)C)NC(=O)c2ccc(cc2)CNC(=O)C(C(C)(C)O)NC(=O)[C@@H](Cc2ccccc2)NC1=O", "note": "(stereo partly drawn) [compound 109, (1^2S,1^3aS,1^7aS,3S,10S,13R,16S,20R)-13-benzyl-20-hydroxy-10-(2-hydroxypropan-2-yl)-3,16-dineopentyl-1^2,1^3,1^3a,1^4,1^5,1^6,1^7,1^7a-octahydro-1^1H-4,8,11,14,17,22-hexaaza-1(1,2)-indola-6(1,4)-benzenacyclotricosaphane-2,5,9,12,15,18,23-heptaone.] (cyclo([4Amb][tBuAla][Oic][GABOB(3R)][tBuAla][dF][ξVal(3-OH)]))", "values": [{"measurement": "MTD, equivalent in humans", "setting": "human equivalent", "result": "~ 2.43 mg/kg"}, {"measurement": "LOAEL, HED", "setting": "human equivalent dose", "result": "~ 1.62 mg/kg"}, {"measurement": "NOAEL, HED", "setting": "human equivalent dose", "result": "~ 0.81 mg/kg"}, {"measurement": "lowest observed adverse effect level (LOAEL)", "setting": "male Crl:CD (SD) rats, single IV bolus", "result": 10, "unit": "mg/kg"}, {"measurement": "ALT", "setting": "5 mg/kg", "result": 52.7, "unit": "U/L"}, {"measurement": "APTT", "setting": "5 mg/kg", "result": 17.933, "unit": "d¹ Seconds"}, {"measurement": "AST", "setting": "5 mg/kg", "result": 71.3, "unit": "U/L"}, {"measurement": "Albumin", "setting": "5 mg/kg", "result": 3.0400, "unit": "g/dL"}, {"measurement": "Alkaline Phosphatase", "setting": "5 mg/kg", "result": 381.7, "unit": "U/L"}, {"measurement": "Blood Urea Nitrogen", "setting": "5 mg/kg", "result": 13.0, "unit": "mg/dL"}, {"measurement": "Calcium", "setting": "5 mg/kg", "result": 11.320, "unit": "mg/dL"}, {"measurement": "Chloride", "setting": "5 mg/kg", "result": 98.3, "unit": "mmol/L"}, {"measurement": "Cholesterol", "setting": "5 mg/kg", "result": "86.0 5.6 3 mg/dL"}, {"measurement": "Creatinine", "setting": "5 mg/kg", "result": 0.3139, "unit": "mg/dL"}, {"measurement": "Fibrinogen", "setting": "5 mg/kg", "result": 403.0, "unit": "mg/dL"}, {"measurement": "Globulin", "setting": "5 mg/kg", "result": 2.239, "unit": "g/dL"}, {"measurement": "Glucose", "setting": "5 mg/kg", "result": 161.3, "unit": "mg/dL"}, {"measurement": "Phosphorus", "setting": "5 mg/kg", "result": "9.10 0.44 3 mg/dL"}, {"measurement": "Potassium", "setting": "5 mg/kg", "result": 5.93, "unit": "d² mmol/L"}, {"measurement": "Prothrombin Time", "setting": "5 mg/kg", "result": 11.77, "unit": "s"}, {"measurement": "Sodium", "setting": "5 mg/kg", "result": 141.3, "unit": "mmol/L"}, {"measurement": "Total Bilirubin", "setting": "5 mg/kg", "result": 0.127, "unit": "mg/dL"}, {"measurement": "Total Protein", "setting": "5 mg/kg", "result": 5.279, "unit": "g/dL"}, {"measurement": "ALT", "setting": "10 mg/kg", "result": 52.0, "unit": "U/L"}, {"measurement": "APTT", "setting": "10 mg/kg", "result": 17.800, "unit": "d¹ Seconds"}, {"measurement": "AST", "setting": "10 mg/kg", "result": 68.3, "unit": "U/L"}, {"measurement": "Albumin", "setting": "10 mg/kg", "result": "3.2720 0.1274 3 g/dL"}, {"measurement": "Alkaline Phosphatase", "setting": "10 mg/kg", "result": 323.0, "unit": "U/L"}, {"measurement": "Blood Urea Nitrogen", "setting": "10 mg/kg", "result": 18.7, "unit": "mg/dL"}, {"measurement": "Calcium", "setting": "10 mg/kg", "result": 11.767, "unit": "mg/dL"}, {"measurement": "Chloride", "setting": "10 mg/kg", "result": 99.0, "unit": "mmol/L"}, {"measurement": "Cholesterol", "setting": "10 mg/kg", "result": "88.7 2.3 3 mg/dL"}, {"measurement": "Creatinine", "setting": "10 mg/kg", "result": 0.318, "unit": "mg/dL"}, {"measurement": "Fibrinogen", "setting": "10 mg/kg", "result": 453.3, "unit": "mg/dL"}, {"measurement": "Globulin", "setting": "10 mg/kg", "result": "2.523 0.078 3 g/dL"}, {"measurement": "Glucose", "setting": "10 mg/kg", "result": "126.7 10.5 3 mg/dL"}, {"measurement": "Phosphorus", "setting": "10 mg/kg", "result": "9.67 0.45 3 mg/dL"}, {"measurement": "Potassium", "setting": "10 mg/kg", "result": 5.77, "unit": "mmol/L"}, {"measurement": "Prothrombin Time", "setting": "10 mg/kg", "result": 12.27, "unit": "d¹ Seconds"}, {"measurement": "Sodium", "setting": "10 mg/kg", "result": 144.0, "unit": "mmol/L"}, {"measurement": "Total Bilirubin", "setting": "10 mg/kg", "result": 0.127, "unit": "mg/dL"}, {"measurement": "Total Protein", "setting": "10 mg/kg", "result": "5.795 0.203 3 g/dL"}, {"measurement": "ALT", "setting": "15 mg/kg", "result": 52.7, "unit": "U/L"}, {"measurement": "APTT", "setting": "15 mg/kg", "result": 16.867, "unit": "s"}, {"measurement": "AST", "setting": "15 mg/kg", "result": 69.7, "unit": "U/L"}, {"measurement": "Albumin", "setting": "15 mg/kg", "result": 3.1030, "unit": "d² 0.0465 3 g/dL"}, {"measurement": "Alkaline Phosphatase", "setting": "15 mg/kg", "result": 286.0, "unit": "U/L"}, {"measurement": "Blood Urea Nitrogen", "setting": "15 mg/kg", "result": 15.7, "unit": "d² mg/dL"}, {"measurement": "Calcium", "setting": "15 mg/kg", "result": 11.590, "unit": "mg/dL"}, {"measurement": "Chloride", "setting": "15 mg/kg", "result": 97.0, "unit": "d² mmol/L"}, {"measurement": "Cholesterol", "setting": "15 mg/kg", "result": "91.0 6.1 3 mg/dL"}, {"measurement": "Creatinine", "setting": "15 mg/kg", "result": 0.352, "unit": "mg/dL"}, {"measurement": "Fibrinogen", "setting": "15 mg/kg", "result": 438.3, "unit": "mg/dL"}, {"measurement": "Globulin", "setting": "15 mg/kg", "result": "2.488 0.021 3 g/dL"}, {"measurement": "Glucose", "setting": "15 mg/kg", "result": 142.3, "unit": "d² 1.2 3 mg/dL"}, {"measurement": "Phosphorus", "setting": "15 mg/kg", "result": "9.00 0.26 3 mg/dL"}, {"measurement": "Potassium", "setting": "15 mg/kg", "result": 5.47, "unit": "mmol/L"}, {"measurement": "Prothrombin Time", "setting": "15 mg/kg", "result": 11.67, "unit": "s"}, {"measurement": "Sodium", "setting": "15 mg/kg", "result": 142.0, "unit": "mmol/L"}, {"measurement": "Total Bilirubin", "setting": "15 mg/kg", "result": 0.140, "unit": "mg/dL"}, {"measurement": "Total Protein", "setting": "15 mg/kg", "result": 5.591, "unit": "d² 0.067 3 g/dL"}, {"measurement": "Body Weights", "setting": "single IV bolus 5 mg/kg", "result": "NE"}, {"measurement": "Clinical Chemistry", "setting": "single IV bolus 5 mg/kg", "result": "NE"}, {"measurement": "Clinical Signs", "setting": "single IV bolus 5 mg/kg", "result": "DA"}, {"measurement": "Coagulation", "setting": "single IV bolus 5 mg/kg", "result": "NE"}, {"measurement": "Hematology", "setting": "single IV bolus 5 mg/kg", "result": "NE"}, {"measurement": "Body Weights", "setting": "single IV bolus 10 mg/kg", "result": "NE"}, {"measurement": "Clinical Chemistry", "setting": "single IV bolus 10 mg/kg", "result": "↑BUN"}, {"measurement": "Clinical Signs", "setting": "single IV bolus 10 mg/kg", "result": "DA, LB"}, {"measurement": "Coagulation", "setting": "single IV bolus 10 mg/kg", "result": "NE"}, {"measurement": "Hematology", "setting": "single IV bolus 10 mg/kg", "result": "↓%Reticulocytes"}, {"measurement": "Body Weights", "setting": "single IV bolus 15 mg/kg", "result": "NE"}, {"measurement": "Clinical Chemistry", "setting": "single IV bolus 15 mg/kg", "result": "↑BUN ↑Creatinine"}, {"measurement": "Clinical Signs", "setting": "single IV bolus 15 mg/kg", "result": "DA, LB, P, HP"}, {"measurement": "Coagulation", "setting": "single IV bolus 15 mg/kg", "result": "NE"}, {"measurement": "Hematology", "setting": "single IV bolus 15 mg/kg", "result": "↓Platelet Count ↓%Reticulocytes ↑Mean Platelet Volume"}, {"measurement": "lung gross histopathology", "setting": "single IV bolus 15 mg/kg", "result": "intra-alveolar hemorrhage and pigment deposition"}]}
